Read-outs that look alike come from different tables or passages of the source.

Experiment [1] deals with MV4-11 cells. Put plainly: Leukemia cell proliferation inhibition test (ATPlite), MV4-11. To be noted: read-out: MV4-11 cell proliferation inhibition effect. The format is cell-based. In outline:
(§1)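 Molm-13 or MV4-11 cells at 10,000 cells/well in RPMI with 10% FBS and pen/strep were exposed to serially diluted compound for 72 h at 37 °C, 5% CO2. Total cellular ATP was read by luciferase luminescence. GI50 was taken relative to 0.1% DMSO control, from duplicates by sigmoid non-linear regression.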

Experiment [2] has as its target T1, human FLT3 protein (FLT3 (WT)) (Homo sapiens, UniProt P36888).
T1 construct: human FLT3 protein (intracellular region, 564 to 993 aa); GST; purchased Carna Biosciences; host or cells: baculovirus expression system
T1 sequence (P36888 564-993): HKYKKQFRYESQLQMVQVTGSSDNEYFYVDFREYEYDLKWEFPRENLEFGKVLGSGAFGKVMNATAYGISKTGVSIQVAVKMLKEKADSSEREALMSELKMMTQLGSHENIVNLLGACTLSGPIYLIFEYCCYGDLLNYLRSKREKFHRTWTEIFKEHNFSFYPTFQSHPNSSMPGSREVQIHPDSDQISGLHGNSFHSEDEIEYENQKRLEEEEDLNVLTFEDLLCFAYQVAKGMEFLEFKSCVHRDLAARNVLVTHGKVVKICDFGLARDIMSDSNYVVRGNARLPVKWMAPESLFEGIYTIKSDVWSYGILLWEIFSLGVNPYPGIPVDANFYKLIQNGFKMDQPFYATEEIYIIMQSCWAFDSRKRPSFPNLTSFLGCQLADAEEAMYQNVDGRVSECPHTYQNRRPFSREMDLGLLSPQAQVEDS
Nature of the experiment: FLT3 inhibition test (FLT3 enzyme inhibition, time-resolved fluorescence of substrate peptide phosphorylation). It counts as biochemical. Particulars: read-out: FLT3 (WT) enzyme inhibition activity. In outline: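 Wild-type human FLT3 (1.2 μg) pre-incubated with compound 15 min at 25° C in 100 mM HEPES pH 7.5, 10 mM MgCl2, 25 mM NaCl, 1 mM DTT. Reaction started with substrate peptide and ATP (final 50 μM), run 30 min at 25° C; phosphorylation read by time-resolved fluorescence.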

The subject of experiment [3] is Molm-13 cells. Nature of the experiment: Leukemia cell proliferation inhibition test (ATPlite), Molm-13. The format is cell-based. Particulars: read-out: MOLM13 cell proliferation inhibition effect. A digest of the protocol: as §1
For orientation: ATP-based viability assays read luminescence as a measure of living cells.

Where [4] appears, read: Homo sapiens, MV4-11, 72 h, MV4-11, 72 hours culture, ATPlite, GI50 per method.
Setting [5] is: GST-fused human FLT3 (564 to 993 aa), ATP 50 μM.
Setting [6] is: Homo sapiens, MOLM-13, 72 h, Molm-13, 72 hours culture, ATPlite, GI50 per method.
Setting [7] is: Homo sapiens, MV4-11, MV4-11 cell.
The mark [8] stands for this setting: Homo sapiens, MOLM-13, MOLM13 cell.

In the case of `C[C@@H](C(=O)NCCCC#Cc1cnc(Nc2cccc(F)c2)nc1NC1=CC2C=CC=NC2C=C1)N(C)C(=O)/C=C/CN(C)C` (stereo partly drawn) [Compound 7-7], the IC50 in experiment [1] (setting [4]), in experiment [2] (setting [5]) and in experiment [3] (setting [6]) was under 10 nM in each case.

For the compound `CCCNc1nc(Nc2ccc(C(N)=O)cc2)ncc1-c1ccc(CCNC(=O)CNC(=O)/C=C/CN(C)C)cc1` [Compound 16-3], the IC50 in experiment [1] (setting [4]) is 100 to 1000 nM; in experiment [2] (setting [5]), under 10 nM; in experiment [3] (setting [6]) it was 100 to 1000 nM.

As for `CCCNc1nc(Nc2cccc(F)c2)ncc1C#Cc1cc(NC(=O)[C@H](C)N(C)C(=O)/C=C/CN(C)C)ccc1F` [Compound 8-7], the results for the IC50 in experiment [1] (setting [4]), in experiment [2] (setting [5]) and in experiment [3] (setting [6]) were under 10 nM, under 10 nM and 10 to 100 nM, respectively.

Consider `CNc1nc(Nc2ccc(F)cc2)ncc1C#CCCCNC(=O)[C@@H]1C[C@@H](OC)CN1C(=O)/C=C/CN(C)C` [Compound 7-83, (2S,4R)-1-((E)-4-(Dimethylamino)-2-butenoyl)-N-(5-(2-((4-fluorophenyl)amino)-4-(methylamino)pyrimidin-5-yl)-4-pentyn-1-yl)-4-methoxypyrrolidine-2-carboxamide], for which the IC50 in experiment [1] (setting [4]), in experiment [2] (setting [5]) and in experiment [3] (setting [6]) was under 10 nM each time.

As for `CNc1nc(Nc2ccc(F)cc2)ncc1C#CCCCNC(=O)[C@@H]1C[C@H](O)CN1C(=O)/C=C/CN(C)C` [Compound 7-84], the IC50 in experiment [1] (setting [4]), in experiment [2] (setting [5]) and in experiment [3] (setting [6]) was under 10 nM each time.

As for `C[C@@H](C(=O)NCCCC#Cc1cnc(Nc2cccc(F)n2)nc1NC1CC1)N(C)C(=O)/C=C/CN(C)C` [Compound 9-23], the IC50 lay in the range of 10 to 100 nM in experiment [1] (setting [4]), 10 to 100 nM in experiment [2] (setting [5]) and 100 to 1000 nM in experiment [3] (setting [6]).

As to `CCCNc1nc(Nc2ccnc(F)c2)ncc1C#C[C@H]1C[C@@H](NC(=O)[C@H](C)N(C)C(=O)/C=C/CN(C)C)C1` (relative stereo) [Compound 14-4, (E)-4-(Dimethylamino)-N—((S)-1-(((1S*,3R*)-3-((2-((2-fluoropyridin-4-yl)amino)-4-(propylamino)pyrimidin-5-yl)ethynyl)cyclobutyl)amino)-1-oxopropan-2-yl)-N-methyl-2-butenamide], the IC50 in experiment [1] (setting [4]), in experiment [2] (setting [5]) and in experiment [3] (setting [6]) was under 10 nM each time.

`CN(C)C/C=C/C(=O)N(C)CC(=O)NCCCC#Cc1cnc(Nc2ccc(F)cc2)nc1NCC1CCOCC1` [Compound 10-18]: the IC50 in experiment [1] (setting [4]), in experiment [2] (setting [5]) and in experiment [3] (setting [6]) was under 10 nM throughout.

For the compound `CCCNc1nc(Nc2cccc(F)c2)ncc1C#CCCCNC(=O)[C@@H]1CCCCN1C(=O)/C=C/CN(C)C` [Compound 7-46], the IC50 in experiment [1] (setting [4]) is under 10 nM; in experiment [2] (setting [5]), under 10 nM; in experiment [3] (setting [6]) it was 10 to 100 nM.

Regarding `CNc1ncc(C#CCCCNC(=O)[C@H](C)N(C)C(=O)/C=C/CN(C)C)c(Nc2ccc(OC)cc2)n1` [Compound 21-48], the IC50 is 10 to 100 nM in experiment [1] (setting [7]), under 10 nM in experiment [2] (FLT3 (WT)) and under 10 nM in experiment [3] (setting [8]).

On to `C[C@@H](C(=O)NCCCC#Cc1cnc(Nc2cccc(F)c2)nc1NCCN1CCOCC1)N(C)C(=O)/C=C/CN(C)C` [Compound 10-6], for which the IC50 in experiment [1] (setting [4]), in experiment [2] (setting [5]) and in experiment [3] (setting [6]) was under 10 nM throughout.

Take `C[C@@H](C(=O)NCCCC#Cc1cnc(Nc2ccc(C#N)cc2)nc1NC1CC1)N(C)C(=O)/C=C/CN(C)C` [Compound 10-25]: the IC50 in experiment [1] (setting [4]), in experiment [2] (setting [5]) and in experiment [3] (setting [6]) was under 10 nM throughout.

On to `CCCNc1nc(Nc2cccc(F)c2)ncc1C#CCCCNC(=O)[C@@H]1CCCN1C(=O)/C=C/CN(C)C` [Compound 7-45], for which the IC50 in experiment [1] (MV4-11, 72 hours culture, ATPlite, GI50 per method) is under 10 nM; in experiment [2] (setting [5]) it was under 10 nM; in experiment [3] (Molm-13, 72 hours culture, ATPlite, GI50 per method), under 10 nM.

For `CCCNc1nc(Nc2cnc3c(c2)c(C)nn3C)ncc1C#CCCCNC(=O)[C@@H]1CCCN1C(=O)/C=C/CN(C)C` [Compound 22-45], the IC50 in experiment [1] (setting [7]), in experiment [2] (FLT3 (WT)) and in experiment [3] (setting [8]) was under 10 nM throughout.

Consider `CCCNc1nc(Nc2ccc(C#N)cc2)ncc1C#CCCCNC(C)(C)CN(C)C(=O)/C=C/CN(C)C` [Compound 8-11], for which the IC50 in experiment [1] (setting [4]), in experiment [2] (setting [5]) and in experiment [3] (setting [6]) was under 10 nM each time.

Turning to `CCCN(CCC)c1nc(Nc2ccc(F)cc2)ncc1C#CCCCNC(=O)CN(C)C(=O)/C=C/CN(C)C` [Compound 10-22], the IC50 in experiment [1] (setting [4]), in experiment [2] (setting [5]) and in experiment [3] (setting [6]) was under 10 nM each time.

Turning to `CNc1ncc(C#C[C@@H]2CCC[C@H](NC(=O)[C@H](C)N(C)C(=O)/C=C/CN(C)C)C2)c(Nc2ccc(OC)cc2)n1` [Compound 21-36], the IC50 in experiment [1] (setting [7]), in experiment [2] (FLT3 (WT)) and in experiment [3] (setting [8]) was under 10 nM in each case.

Regarding `CCCNc1nc(Nc2cccc(F)c2)ncc1CNc1cccc(NC(=O)[C@H](C)N(C)C(=O)/C=C/CN(C)C)c1` [Compound 6-21], the IC50 in experiment [1] (setting [4]) lay within 100 to 1000 nM; in experiment [2] (setting [5]), 10 to 100 nM; in experiment [3] (setting [6]), 100 to 1000 nM.

With `CCCNc1nc(Nc2cnc3c(cnn3CCOC)c2)ncc1C#CCCCNC(=O)[C@H](C)N(C)C(=O)/C=C/CN(C)C` [Compound 22-40], the IC50 in experiment [1] (setting [7]), in experiment [2] (FLT3 (WT)) and in experiment [3] (setting [8]) was under 10 nM in each case.

As to `CCCNc1nc(Nc2ccc(C(N)=O)cc2)ncc1C(=O)Nc1cccc(NC(=O)[C@H](C)N(C)C(=O)/C=C/C(C)N(C)C)c1` (stereo partly drawn) [Compound 4-14], the IC50 in experiment [1] (setting [4]), in experiment [2] (setting [5]) and in experiment [3] (setting [6]) was under 10 nM each time.

In the case of `C=C(C)C(=O)N(C)[C@@H](C)C(=O)Nc1cccc(NC(=O)c2cnc(Nc3ccc(C(N)=O)cc3)nc2NCCC)c1` [Compound 3-10], the IC50 in experiment [1] (setting [4]) is 100 to 1000 nM; in experiment [2] (setting [5]) it was under 10 nM; in experiment [3] (setting [6]), 100 to 1000 nM.

Turning to `C[C@@H](C(=O)Nc1cccc(C#Cc2cnc(NCCc3ccncc3)nc2N2CCOCC2)c1)N(C)C(=O)/C=C/CN(C)C` [Compound 12-13, (S,E)-4-(dimethylamino)-N-methyl-N-(1-((3-((4-morpholino-2-((2-(pyridin-4-yl)ethyl)amino)pyrimidin-5-yl)ethynyl)phenyl)amino)-1-oxopropan-2-yl)-2-butenamide], the IC50 in experiment [1] (setting [4]), in experiment [2] (setting [5]) and in experiment [3] (setting [6]) was under 10 nM throughout.

In the case of `CCCNc1nc(Nc2cccc3c2cnn3C)ncc1C#CCCCNC(=O)[C@H](C)N(C)C(=O)/C=C/CN(C)C` [Compound 21-5], the IC50 in experiment [1] (setting [4]) was over 1000 nM; in experiment [2] (setting [5]) it was 100 to 1000 nM; in experiment [3] (setting [6]), 100 to 1000 nM.

In the case of `CC[C@@H](C(=O)NCCCC#Cc1cnc(Nc2ccc(F)nc2)nc1Nc1ccc(OC)cc1)N(C)C(=O)/C=C/CN(C)C` [Compound 10-37], the IC50 in experiment [1] (setting [4]), in experiment [2] (setting [5]) and in experiment [3] (setting [6]) was under 10 nM in each case.

As to `CCCNc1nc(Nc2ccc(C(N)=O)cc2)ncc1C(=O)Nc1ccc2nc(CNC(=O)/C=C/CN(C)C)[nH]c2c1` [Compound 3-18], the IC50 in experiment [1] (setting [4]) was over 1000 nM; in experiment [2] (setting [5]) it was under 10 nM; in experiment [3] (setting [6]), over 1000 nM.

With `CCCNc1nc(Nc2ccc(C#N)cc2)ncc1C#CCCCNC(=O)[C@H](COC)NC(=O)/C=C/CN(C)C` [Compound 7-44], the IC50 in experiment [1] (setting [4]), in experiment [2] (setting [5]) and in experiment [3] (setting [6]) was under 10 nM each time.

Regarding `C=CC(=O)NCC(=O)Nc1cccc(CNC(=O)c2cnc(NCCc3ccncc3)nc2NCCC)c1` [Compound 2-27], the IC50 was in the range of 100 to 1000 nM in experiment [1] (setting [4]), 10 to 100 nM in experiment [2] (setting [5]) and 100 to 1000 nM in experiment [3] (setting [6]).

On to `C=CC(=O)NCC(=O)Nc1cc(Cl)cc(NC(=O)c2cnc(NCCc3ccncc3)nc2NCCC)c1` [Compound 2-5], for which the values for the IC50 in experiment [1] (setting [4]), in experiment [2] (setting [5]) and in experiment [3] (setting [6]) were 10 to 100 nM, under 10 nM and 10 to 100 nM, respectively.

With `C[C@@H](C(=O)N[C@H]1C[C@@H](C#Cc2cnc(Nc3cccc(F)c3)nc2NC2CC2)C1)N(C)C(=O)/C=C/CN(C)C` [Compound 15-7], the IC50 in experiment [1] (setting [4]), in experiment [2] (setting [5]) and in experiment [3] (setting [6]) was under 10 nM each time.

Consider `CC(C)Oc1nc(Nc2ccc(C#N)cc2)ncc1C#C[C@@H]1CCC[C@H](NC(=O)[C@H](C)N(C)C(=O)/C=C/CN(C)C)C1` [Compound 21-22], for which the IC50 in experiment [1] (setting [4]), in experiment [2] (setting [5]) and in experiment [3] (setting [6]) was under 10 nM throughout.

The values above are taken from patent publication US9145415B2, “Nitrogen-containing heterocyclic compound or salt thereof” (FUJIFILM Corporation, priority 2012, dated 2015).
